According to patent US20080234262A1 (Wyeth, priority 2007, published 2008):

Key:
prostate line LNCap = assay: In vitro cell culture growth assay (MTS), LNCap; format: cell-based, human; conditions: LNCap cells, three days after drug treatment
breast line MDA468 = assay: In vitro cell culture growth assay (MTS), MDA468; format: cell-based, human; conditions: MDA468 cells, three days after drug treatment
How it was run: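 MDA468 or LNCap cells received inhibitors one day after plating and were grown for three days. Viable cell density read by MTS conversion, absorbance 490 nm, expressed as percent of control growth versus vehicle-treated cells on the same plate.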

PI3K = PI3K (Homo sapiens, UniProt P42336); assay: Fluorescence polarization assay for PI3K; format: biochemical; conditions: PI3Kα; read-out: PI3Kα IC50;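 further: PI3K kinase reaction on PIP2 with ATP, 30-60 min, product sensed by GST-GRP with red probe in fluorescence polarization (mP), controls without enzyme and at zero time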
Sequence of PI3K (P42336 whole entry): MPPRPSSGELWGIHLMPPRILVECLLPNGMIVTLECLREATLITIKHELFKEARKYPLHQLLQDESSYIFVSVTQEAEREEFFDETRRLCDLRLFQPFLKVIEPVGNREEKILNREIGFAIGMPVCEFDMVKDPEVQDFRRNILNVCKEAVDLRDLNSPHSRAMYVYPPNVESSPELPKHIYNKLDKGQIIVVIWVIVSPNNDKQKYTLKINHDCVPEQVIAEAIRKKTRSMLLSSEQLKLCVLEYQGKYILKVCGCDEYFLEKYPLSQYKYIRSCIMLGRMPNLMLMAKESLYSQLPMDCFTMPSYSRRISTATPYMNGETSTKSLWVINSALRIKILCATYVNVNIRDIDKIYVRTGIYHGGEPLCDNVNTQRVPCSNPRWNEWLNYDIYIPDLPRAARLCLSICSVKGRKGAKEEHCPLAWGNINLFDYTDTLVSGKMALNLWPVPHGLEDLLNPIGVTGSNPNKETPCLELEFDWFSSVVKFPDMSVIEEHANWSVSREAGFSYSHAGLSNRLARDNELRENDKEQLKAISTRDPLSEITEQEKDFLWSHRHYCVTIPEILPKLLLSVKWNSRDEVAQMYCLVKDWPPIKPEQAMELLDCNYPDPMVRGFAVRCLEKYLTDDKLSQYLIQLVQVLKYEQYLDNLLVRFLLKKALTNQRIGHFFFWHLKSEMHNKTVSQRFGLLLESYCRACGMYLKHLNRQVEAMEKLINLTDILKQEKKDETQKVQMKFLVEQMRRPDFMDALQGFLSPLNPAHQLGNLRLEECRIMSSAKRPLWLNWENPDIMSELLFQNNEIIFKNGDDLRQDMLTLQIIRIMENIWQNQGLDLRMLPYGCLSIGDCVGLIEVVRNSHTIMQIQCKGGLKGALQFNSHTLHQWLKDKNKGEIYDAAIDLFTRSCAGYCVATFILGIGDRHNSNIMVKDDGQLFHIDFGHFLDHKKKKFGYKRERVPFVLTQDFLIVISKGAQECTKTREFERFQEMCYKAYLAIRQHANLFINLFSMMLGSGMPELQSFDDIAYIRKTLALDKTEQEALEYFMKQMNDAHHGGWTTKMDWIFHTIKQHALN
Sequence of PI3K (P27986 whole entry partner): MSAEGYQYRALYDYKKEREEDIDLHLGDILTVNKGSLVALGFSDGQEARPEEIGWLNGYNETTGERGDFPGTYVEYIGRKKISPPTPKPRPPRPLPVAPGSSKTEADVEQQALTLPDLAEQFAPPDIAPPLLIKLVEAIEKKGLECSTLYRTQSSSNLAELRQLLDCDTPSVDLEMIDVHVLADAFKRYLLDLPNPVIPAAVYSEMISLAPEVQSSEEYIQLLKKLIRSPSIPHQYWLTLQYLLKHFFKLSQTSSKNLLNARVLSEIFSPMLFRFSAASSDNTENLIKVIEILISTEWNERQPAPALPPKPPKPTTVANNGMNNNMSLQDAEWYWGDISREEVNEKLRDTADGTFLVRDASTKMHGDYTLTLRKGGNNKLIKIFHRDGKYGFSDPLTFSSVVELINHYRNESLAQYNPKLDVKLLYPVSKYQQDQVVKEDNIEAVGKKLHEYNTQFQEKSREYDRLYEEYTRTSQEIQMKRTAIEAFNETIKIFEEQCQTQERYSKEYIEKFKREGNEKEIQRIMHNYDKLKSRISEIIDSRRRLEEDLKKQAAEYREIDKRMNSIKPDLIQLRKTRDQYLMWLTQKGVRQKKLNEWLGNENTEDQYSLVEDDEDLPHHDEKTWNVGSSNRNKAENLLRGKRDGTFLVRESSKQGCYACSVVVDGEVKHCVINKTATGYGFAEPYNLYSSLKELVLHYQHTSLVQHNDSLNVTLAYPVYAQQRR

Row | Structure (SMILES) | IC50 (prostate line LNCap; Homo sapiens, LNCaP, 72 h) [nM] | IC50 (breast line MDA468; Homo sapiens, 72 h) [nM] | IC50 (PI3K) [nM] | IC50 (prostate line LNCap) [nM] | IC50 (breast line MDA468) [nM]
1 | O=C(NCCF)Nc1ccc(-c2nc(N3CCOCC3)c3cnn(C4CCN(Cc5cccnc5)CC4)c3n2)cc1 [Compound 560, 1-(2-fluoroethyl)-3-(4-{4-morpholin-4-yl-1-[1-(pyridin-3-ylmethyl)piperidin-4-yl]-1H-pyrazolo[3,4-d]pyrimidin-6-yl}phenyl)urea] | < 27 | 27 | 338 | – | –
2 | CNC(=O)Nc1ccc(-c2nc(N3CCOCC3)c3cnn(C4CCN(CC(=O)c5ccccc5)CC4)c3n2)cc1 [Compound 577, 1-methyl-3-(4-{4-morpholin-4-yl-1-[1-(2-oxo-2-phenylethyl)piperidin-4-yl]-1H-pyrazolo[3,4-d]pyrimidin-6-yl}phenyl)urea] | < 27 | 180 | 22 | – | –
3 | CC(C)(C)OC(=O)N1CCC[C@H](n2ncc3c(N4CCOCC4)nc(-c4ccc5[nH]ccc5c4)nc32)C1 [Compound 169] | 2000 | 12000 | 341 | – | –
4 | O=C1Cc2cc(-c3nc(N4CCOCC4)c4cnn(-c5ccccc5)c4n3)ccc2N1 [Compound 677, 5-(4-morpholin-4-yl-1-phenyl-1H-pyrazolo[3,4-d]pyrimidin-6-yl)-1,3-dihydro-2H-indol-2-one] | – | – | 1030 | > 60000 | > 60000
5 | COC(=O)N1CCC(n2ncc3c(N4CCOCC4)nc(-c4ccc(NC(=O)Nc5ccccn5)cc4)nc32)CC1 [Compound 736, methyl 4-(4-morpholin-4-yl-6-{4-[(pyridin-2-ylcarbamoyl)amino]phenyl}-1H-pyrazolo[3,4-d]pyrimidin-1-yl)piperidine-1-carboxylate] | 565 | 17000 | 1150 | – | –
6 | COCCCNC(=O)Nc1ccc(-c2nc(N3CCOCC3)c3cnn(C4CCN(Cc5ccccc5)CC4)c3n2)cc1 [Compound 270, 1-{4-[1-(1-benzylpiperidin-4-yl)-4-morpholin-4-yl-1H-pyrazolo[3,4-d]pyrimidin-6-yl]phenyl}-3-(3-methoxypropyl)urea] | 600 | 3200 | 753 | – | –
7 | Clc1cc(-c2nc(N3CCOCC3)c3cnn(C4CCN(Cc5ccccc5)CC4)c3n2)ccn1 [Compound 157] | 33000 | 60000 | 1030 | – | –
8 | COC(=O)Nc1ccc(-c2nc(N3CCOCC3)c3cnn(C4CCN(Cc5ccc(Cl)cc5)CC4)c3n2)cc1 [Compound 451, methyl (4-{1-[1-(4-chlorobenzyl)piperidin-4-yl]-4-morpholin-4-yl-1H-pyrazolo[3,4-d]pyrimidin-6-yl}phenyl)carbamate] | 2000 | 9000 | 389 | – | –
9 | CNC(=O)Nc1ccc(-c2nc(N3CCOCC3)c3cnn(C4CCN(C(=O)c5ccc(Br)cc5)CC4)c3n2)cc1 [Compound 606, 1-(4-{1-[1-(4-bromobenzoyl)piperidin-4-yl]-4-morpholin-4-yl-1H-pyrazolo[3,4-d]pyrimidin-6-yl}phenyl)-3-methylurea] | 52 | 180 | 34 | – | –
10 | C#CCNC(=O)Nc1ccc(-c2nc(N3CCOCC3)c3cnn(C4CCN(Cc5ccccc5)CC4)c3n2)cc1 [Compound 312, 1-{4-[1-(1-benzylpiperidin-4-yl)-4-morpholin-4-yl-1H-pyrazolo[3,4-d]pyrimidin-6-yl]phenyl}-3-prop-2-yn-1-ylurea] | 400 | 3900 | 173 | – | –
11 | Nc1ccnc(-c2nc(N3CCOCC3)c3cnn(-c4ccccc4)c3n2)c1 [Compound 681, 2-(4-morpholin-4-yl-1-phenyl-1H-pyrazolo[3,4-d]pyrimidin-6-yl)pyridin-4-amine] | – | – | 1460 | > 60000 | > 60000
12 | CN(C)CC(=O)Nc1ccc(-c2nc(N3CCOCC3)c3cnn(C4CCCCO4)c3n2)cc1 (stereo not drawn) [Compound 275] | 12000 | 40000 | 9000 | – | –
13 | CN(C)C(=O)N1CCC(n2ncc3c(N4CCOCC4)nc(-c4ccc5[nH]ccc5c4)nc32)CC1 [Compound 95] | 700 | 2100 | 2460 | – | –
14 | CNC(=O)Nc1ccc(-c2nc(N3CCOCC3)c3cnn(C4CCC5(CC4)OCCO5)c3n2)cc1 [Compound 566, 1-{4-[1-(1,4-dioxaspiro[4.5]dec-8-yl)-4-morpholin-4-yl-1H-pyrazolo[3,4-d]pyrimidin-6-yl]phenyl}-3-methylurea] | < 27 | 85 | 74 | – | –
15 | CNC(=O)Nc1ccc(-c2nc(N3CCOCC3)c3cnn(C4CCN(Cc5ccc(Cl)nc5)CC4)c3n2)cc1 [Compound 633, 1-[4-(1-{1-[(6-chloropyridin-3-yl)methyl]piperidin-4-yl}-4-morpholin-4-yl-1H-pyrazolo[3,4-d]pyrimidin-6-yl)phenyl]-3-methylurea] | – | – | 47 | < 27 | 48
16 | CC(C)(C)OC(=O)N1CCC(n2ncc3c(N4CCOCC4)nc(-c4ccc(NC(=O)Nc5nccs5)cc4)nc32)CC1 [Compound 884, tert-butyl 4-(4-morpholin-4-yl-6-{4-[(1,3-thiazol-2-ylcarbamoyl)amino]phenyl}-1H-pyrazolo[3,4-d]pyrimidin-1-yl)piperidine-1-carboxylate] | 260 | 1600 | 264 | – | –
17 | CNC(=O)Nc1ccc(-c2nc(N3CCOCC3)c3cnn(C4CCN(C(=O)Nc5cccnc5)CC4)c3n2)cc1 [Compound 579, 4-(6-{4-[(methylcarbamoyl)amino]phenyl}-4-morpholin-4-yl-1H-pyrazolo[3,4-d]pyrimidin-1-yl)-N-pyridin-3-ylpiperidine-1-carboxamide] | 3000 | 2500 | 30 | – | –
18 | O=C(c1ncccc1O)N1CCC(n2ncc3c(N4CCOCC4)nc(-c4ccc5[nH]ccc5c4)nc32)CC1 [Example 198, 2-({4-[6-(1H-indol-5-yl)-4-morpholin-4-yl-1H-pyrazolo[3,4-d]pyrimidin-1-yl]piperidin-1-yl}carbonyl)pyridin-3-ol] | 700 | 4000 | 1650 | – | –
19 | Cc1ccncc1C(=O)N1CCC(n2ncc3c(N4CCOCC4)nc(-c4ccc5[nH]ccc5c4)nc32)CC1 [Example 199, 6-(1H-indol-5-yl)-1-{1-[(4-methylpyridin-3-yl)carbonyl]piperidin-4-yl}-4-morpholin-4-yl-1H-pyrazolo[3,4-d]pyrimidine] | 450 | 1800 | 2940 | – | –
20 | NC(=O)Nc1cccc(-c2nc(N3CCOCC3)c3cnn(C4CCN(Cc5ccccc5)CC4)c3n2)c1 [Compound 483, N-{3-[1-(1-benzylpiperidin-4-yl)-4-morpholin-4-yl-1H-pyrazolo[3,4-d]pyrimidin-6-yl]phenyl}urea] | 6800 | 12000 | 2170 | – | –
21 | c1ccc(-n2ncc3c(N4CCOCC4)nc(-c4cc5ccccc5o4)nc32)cc1 [Compound 112] | 15000 | 60000 | 1910 | – | –
22 | Nc1ccc(-c2nc(N3CCOCC3)c3cnn(C4CCC5(CC4)OCCO5)c3n2)cc1 [Compound 320, 4-[1-(1,4-dioxaspiro[4.5]dec-8-yl)-4-morpholin-4-yl-1H-pyrazolo[3,4-d]pyrimidin-6-yl]aniline] | 1100 | 7200 | 2050 | – | –
23 | COC(=O)Nc1ccc(-c2nc(N3CCOCC3)c3cnn(C4CCN(C(=O)C(F)(F)F)CC4)c3n2)cc1 [Compound 811, methyl (4-{4-morpholin-4-yl-1-[1-(trifluoroacetyl)piperidin-4-yl]-1H-pyrazolo[3,4-d]pyrimidin-6-yl}phenyl)carbamate] | 1900 | 4600 | 1350 | – | –
24 | CNC(=O)Nc1ccc(-c2nc(N3CCOCC3)c3cnn(C4CCN(C(=O)C(F)(F)F)CC4)c3n2)cc1 [Compound 763, 1-methyl-3-(4-{4-morpholin-4-yl-1-[1-(trifluoroacetyl)piperidin-4-yl]-1H-pyrazolo[3,4-d]pyrimidin-6-yl}phenyl)urea] | 270 | 500 | 154 | – | –
25 | O=C(Nc1ccncc1)Nc1ccc(-c2nc(N3CCOCC3)c3cnn(C4CCN(Cc5cccnc5)CC4)c3n2)cc1F [Compound 599, 1-(2-fluoro-4-{4-morpholin-4-yl-1-[1-(pyridin-3-ylmethyl)piperidin-4-yl]-1H-pyrazolo[3,4-d]pyrimidin-6-yl}phenyl)-3-pyridin-4-ylurea] | < 27 | 82 | 34 | – | –
26 | CNC(=O)Nc1ccc(-c2nc(N3CCOCC3)c3cnn(C4CCN(CC(=O)OC)CC4)c3n2)cc1 [Compound 794, methyl [4-(6-{4-[(methylcarbamoyl)amino]phenyl}-4-morpholin-4-yl-1H-pyrazolo[3,4-d]pyrimidin-1-yl)piperidin-1-yl]acetate] | 140 | 500 | 126 | – | –
27 | O=C(NCCF)Nc1ccc(-c2nc(N3CCOCC3)c3cnn(C4CCNCC4)c3n2)cc1 [Compound 774, 1-(2-fluoroethyl)-3-[4-(4-morpholin-4-yl-1-piperidin-4-yl-1H-pyrazolo[3,4-d]pyrimidin-6-yl)phenyl]urea] | 2300 | 1050 | 436 | – | –
28 | CNC(=O)Nc1ccc(-c2nc(N3CCOCC3)c3cnn(C4CCN(Cc5ccc(Cl)nc5)CC4)c3n2)cc1 [Example 388, 1-[4-(1-{1-[(6-chloropyridin-3-yl)methyl]piperidin-4-yl}-4-morpholin-4-yl-1H-pyrazolo[3,4-d]pyrimidin-6-yl)phenyl]-3-methylurea] | 27 | – | 47 | – | 100
29 | CNC(=O)Nc1ccc(-c2nc(N3CCOCC3)c3cnn(C4CCN(Cc5cccnc5)CC4)c3n2)cc1F [Compound 597, 1-(2-fluoro-4-{4-morpholin-4-yl-1-[1-(pyridin-3-ylmethyl)piperidin-4-yl]-1H-pyrazolo[3,4-d]pyrimidin-6-yl}phenyl)-3-methylurea] | 27 | 180 | 246 | – | –
